Reference: article PMC8151276, “An Integrated Approach toward NanoBRET Tracers for Analysis of GPCR Ligand Engagement” (Molecules, 2021)

Experiments:
Assay type in all cases: binding
PTGIR = molecular target: T1, PTGIR (Homo sapiens, UniProt P43119); assay: NanoBRET screen HiBiT-PTGIR in HEK293; details: PTGIR
T1 construct: purchased Promega (in-house HiBiT-GPCR construct library, NanoBRET)
Description: (§1) Each tracer candidate was screened across the entire library of HiBiT-GPCR constructs using NanoBRET as the detection modality. As depicted in Figure 4A, the specificity of interactions was evaluated through decrease in BRET due to competitive displacement of a bound tracer by excess parental compound. Each tracer was analyzed for binding to each HiBiT-GPCR fusion in the absence and in the presence of competing parental compound. Briefly, HEK293 cells were transfected with HiBiT-GPCR constructs diluted into promoterless DNA to reduce expression and maximize translocation to the cell surface. Each tracer candidate was then screened at concentrations of 1 μM and 0.1 μM across cells expressing these fusions. Cells were treated for 1.5 h with tracer either alone or in the presence of 20 μM competing parental compound (i.e., control). BRET was measured upon addition of purified LgBiT and subsequent complementation with HiBiT genetically fused to a GPCR. The specificity of interactions was assessed through a decrease in BRET signal due to competitive displacement of the bound tracer. To further gauge the robustness of these interactions, the fold response over the control (i.e., BRETtracer/BRETcontrol) was calculated. We chose a 1.5-fold response, which translates to ≥7-fold signal over noise as the minimal threshold required to score an interaction as positive. […]. Below we highlight the screening results obtained for our exemplary fluorescent tracers based on Clozapine, Amitriptyline and AZD1283.
(§2) HiBiT-GPCR DNA constructs were diluted in 10 mM Tris pH 8 to a final concentration of 0.01 μg/μL, arrayed in 96-well plates and stored at −20 °C. For transfection, HEK293 cells were suspended in Opti-MEM (without phenol red) supplemented with 2% fetal bovine serum (Seradigm) and 100 units/mL penicillin–streptomycin (Gibco) at a final concentration of 220,000 cells/mL and dispensed into white 96-well plates at 90 μL/well. Subsequent transfections and screens were carried using an Agilent Bravo Automated Liquid Handling Platform. First, the 96-well HiBiT DNA arrays were diluted 25-fold in Opti-MEM (without serum or phenol red) to a final concentration of 0.0004 μg/μL and 20 μL of the diluted DNAs were transferred into new 96-well plates. Next, promoterless carrier DNA (1 μg/μL) was diluted 25-fold (0.04 μg/μL) and then dispensed into the diluted arrays at 20 μL/well. Following brief mixing, Viafect transfection reagent (Promega) diluted 16-fold into Opti-MEM was dispensed into the plates at 40 μL/well. After mixing by pipetting, plates were incubated for 10 min on the pipetting station deck. The DNA-transfection reagent complexes were then added to plates containing cells. To facilitate the screen, 10 μL of DNA-transfection reagent complexes were added in duplicates to the top 4 and bottom 4 rows, resulting in two identical 48-well arrays per plate. Plates with transfected cells were incubated for 18–20 h at 37 °C/5% CO2. A screen of each tracer across the entire library using two different concentrations requires duplicate plates of transfected cells. Depending on the number of tracers being screened, transfections can be scaled up using the same ratios. The next day, for each tracer, four 20× screening solutions in tracer dilution buffer (Promega) were prepared: two duplicates at final concentration of 20 μM and two duplicates at a final concentration of 2 μM. A competing unmodified compound was added to one of each duplicate at a final concentration of 400 μM. The four resulting solutions were diluted 4-fold in Opti-MEM without serum or phenol red to generate 5× solutions (5 µM and 0.5 µM tracer +/− 100 μM competing compound). To screen the library, a BioTek MultiFlo FX liquid dispenser was used to dispense 22.5 µL of tracer solution to the top 4 rows and 22.5 µL tracer + competing compound solution to the 4 bottom rows. Plates were briefly mixed on an orbital shaker and incubated for 1.5 h at room temperature. […]

TBXA2R = molecular target: T2, TBXA2R (Homo sapiens, UniProt P21731); assay: NanoBRET screen HiBiT-TBXA2R in HEK293
T2 construct: purchased Promega (in-house HiBiT-GPCR construct library, NanoBRET)
T2 sequence (P21731 1-343): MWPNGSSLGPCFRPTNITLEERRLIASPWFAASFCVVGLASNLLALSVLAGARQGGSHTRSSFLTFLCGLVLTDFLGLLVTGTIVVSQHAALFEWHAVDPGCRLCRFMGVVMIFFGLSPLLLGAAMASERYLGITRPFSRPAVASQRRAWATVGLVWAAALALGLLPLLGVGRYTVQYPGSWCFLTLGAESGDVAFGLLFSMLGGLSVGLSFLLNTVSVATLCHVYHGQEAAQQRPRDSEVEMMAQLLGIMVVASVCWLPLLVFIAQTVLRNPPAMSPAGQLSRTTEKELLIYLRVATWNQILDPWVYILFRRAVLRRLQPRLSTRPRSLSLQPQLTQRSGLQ
Description: as §1, §2

SMO = molecular target: T3, SMO (Homo sapiens, UniProt Q99835); assay: NanoBRET screen HiBiT-SMO in HEK293
T3 construct: purchased Promega (in-house HiBiT-GPCR construct library, NanoBRET)
T3 sequence (Q99835 28-787): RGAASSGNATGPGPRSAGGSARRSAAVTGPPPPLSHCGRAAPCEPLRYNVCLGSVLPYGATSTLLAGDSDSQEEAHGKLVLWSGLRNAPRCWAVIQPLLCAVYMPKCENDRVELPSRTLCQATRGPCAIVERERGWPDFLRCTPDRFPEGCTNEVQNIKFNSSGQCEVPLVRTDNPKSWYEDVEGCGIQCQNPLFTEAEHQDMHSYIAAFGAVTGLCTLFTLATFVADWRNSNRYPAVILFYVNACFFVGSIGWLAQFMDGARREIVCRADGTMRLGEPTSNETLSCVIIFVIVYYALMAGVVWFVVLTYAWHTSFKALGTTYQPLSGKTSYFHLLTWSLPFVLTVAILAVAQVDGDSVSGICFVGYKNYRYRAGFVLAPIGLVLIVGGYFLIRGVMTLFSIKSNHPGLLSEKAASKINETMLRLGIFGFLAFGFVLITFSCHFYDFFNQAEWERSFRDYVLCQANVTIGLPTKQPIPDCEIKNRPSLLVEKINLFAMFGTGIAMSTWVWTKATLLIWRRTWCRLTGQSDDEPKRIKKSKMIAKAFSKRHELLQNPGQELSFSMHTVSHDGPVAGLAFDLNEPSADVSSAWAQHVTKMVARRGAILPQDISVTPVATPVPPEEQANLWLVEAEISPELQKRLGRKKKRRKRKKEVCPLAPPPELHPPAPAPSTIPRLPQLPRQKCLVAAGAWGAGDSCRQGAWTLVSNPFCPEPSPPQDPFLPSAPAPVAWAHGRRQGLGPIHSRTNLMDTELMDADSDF
Description: as §1, §2

CCR4 = molecular target: T4, CCR4 (Homo sapiens, UniProt P51679); assay: NanoBRET screen HiBiT-CCR4 in HEK293
T4 construct: purchased Promega (in-house HiBiT-GPCR construct library, NanoBRET)
T4 sequence (P51679 1-360): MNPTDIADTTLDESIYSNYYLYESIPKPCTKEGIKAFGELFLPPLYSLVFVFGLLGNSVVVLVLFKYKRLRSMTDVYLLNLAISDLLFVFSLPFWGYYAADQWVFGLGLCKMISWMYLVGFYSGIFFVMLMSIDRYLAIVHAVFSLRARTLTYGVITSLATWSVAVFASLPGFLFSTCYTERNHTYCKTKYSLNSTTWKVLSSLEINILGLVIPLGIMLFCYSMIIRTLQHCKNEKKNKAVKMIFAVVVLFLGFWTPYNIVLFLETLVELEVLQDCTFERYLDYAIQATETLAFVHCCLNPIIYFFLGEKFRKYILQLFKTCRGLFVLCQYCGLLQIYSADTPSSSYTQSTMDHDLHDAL
Description: as §1, §2

HRH3 = molecular target: T5, HRH3 (Homo sapiens, UniProt Q9Y5N1); assay: NanoBRET screen HiBiT-HRH3 in HEK293
T5 construct: purchased Promega (in-house HiBiT-GPCR construct library, NanoBRET)
T5 sequence (Q9Y5N1 whole entry): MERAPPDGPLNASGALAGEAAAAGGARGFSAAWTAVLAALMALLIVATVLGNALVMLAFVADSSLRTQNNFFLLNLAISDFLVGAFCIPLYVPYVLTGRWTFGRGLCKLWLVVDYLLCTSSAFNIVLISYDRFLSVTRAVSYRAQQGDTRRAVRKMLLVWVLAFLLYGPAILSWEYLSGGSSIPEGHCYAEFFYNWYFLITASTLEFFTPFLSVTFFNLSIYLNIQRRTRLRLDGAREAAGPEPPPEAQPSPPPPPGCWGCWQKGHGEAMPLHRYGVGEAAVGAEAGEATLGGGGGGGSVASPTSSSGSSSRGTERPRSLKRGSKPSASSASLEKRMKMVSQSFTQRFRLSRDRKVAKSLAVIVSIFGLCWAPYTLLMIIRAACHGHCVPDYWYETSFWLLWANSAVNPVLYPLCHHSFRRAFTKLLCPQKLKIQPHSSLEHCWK
Description: as §1, §2

CYSLTR2 = molecular target: T6, CYSLTR2 (Homo sapiens, UniProt Q9NS75); assay: NanoBRET screen HiBiT-CYSLTR2 in HEK293; details: CYSLTR2
T6 construct: purchased Promega (in-house HiBiT-GPCR construct library, NanoBRET)
T6 sequence (Q9NS75 1-346): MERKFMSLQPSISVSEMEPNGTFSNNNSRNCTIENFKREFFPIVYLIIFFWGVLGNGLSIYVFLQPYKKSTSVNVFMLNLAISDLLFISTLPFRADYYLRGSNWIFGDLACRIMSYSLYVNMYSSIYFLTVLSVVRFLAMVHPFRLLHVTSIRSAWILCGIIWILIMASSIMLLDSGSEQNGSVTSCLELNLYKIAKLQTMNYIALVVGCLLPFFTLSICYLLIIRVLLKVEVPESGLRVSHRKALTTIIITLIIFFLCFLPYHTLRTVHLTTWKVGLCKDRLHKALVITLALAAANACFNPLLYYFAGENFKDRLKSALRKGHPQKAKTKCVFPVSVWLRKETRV
Description: as §1, §2

[1] = tracer at 0.1μM, listed as amitriptyline-b-2-NB590

T1 sequence (P43119 whole entry): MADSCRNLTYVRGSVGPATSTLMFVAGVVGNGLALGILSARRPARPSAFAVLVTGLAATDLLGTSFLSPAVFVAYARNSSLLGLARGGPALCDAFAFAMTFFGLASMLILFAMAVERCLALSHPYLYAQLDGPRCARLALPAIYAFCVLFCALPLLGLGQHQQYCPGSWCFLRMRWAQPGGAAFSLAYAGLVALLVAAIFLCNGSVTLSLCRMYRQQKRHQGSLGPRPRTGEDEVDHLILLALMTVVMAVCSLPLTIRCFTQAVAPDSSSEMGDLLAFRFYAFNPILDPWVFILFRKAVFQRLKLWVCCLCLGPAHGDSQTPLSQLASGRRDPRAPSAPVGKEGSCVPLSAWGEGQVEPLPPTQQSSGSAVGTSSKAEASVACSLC

## CCOC(=O)c1cc(C#N)c(N2CCC(C(=O)NS(=O)(=O)Cc3ccccc3/C=C/C(=O)NCCNC(=O)CCc3ccc4n3[B-](F)(F)[N+]3=C(c5ccc[nH]5)C=CC3=C4)CC2)nc1C [AZD1283-1-NB590]
PTGIR; 0.1μM
  NanoBRET Fold Response: 1.04
PTGIR; 1μM
  NanoBRET Fold Response: 1.07
TBXA2R; TBXA2R, 0.1μM
  NanoBRET Fold Response: 1.04
TBXA2R; TBXA2R, 1μM
  NanoBRET Fold Response: 1.19
SMO; SMO, 0.1μM
  NanoBRET Fold Response: 1.05
SMO; SMO, 1μM
  NanoBRET Fold Response: 1.13
CCR4; CCR4, 0.1μM
  NanoBRET Fold Response: 1.09
CCR4; CCR4, 1μM
  NanoBRET Fold Response: 1.07
HRH3; HRH3, 0.1μM
  NanoBRET Fold Response: 1.16
HRH3; HRH3, 1μM
  NanoBRET Fold Response: 0.87
CYSLTR2; 0.1μM
  NanoBRET Fold Response: 1.07
CYSLTR2; 1μM
  NanoBRET Fold Response: 0.97

## N#CN=C(NCCCOc1cccc(CN2CCCCC2)c1)NCCNC(=O)CCOCCOCCOCCOCCNC(=O)CCc1ccc2n1[B-](F)(F)[N+]1=C(c3ccc[nH]3)C=CC1=C2 [Aminopotentidine-2-NB590]
PTGIR; tracer 0.1μM
  NanoBRET Fold Response: 1.03
PTGIR; tracer 1μM
  NanoBRET Fold Response: 1.03
TBXA2R; TBXA2R, tracer 0.1μM
  NanoBRET Fold Response: 0.98
TBXA2R; TBXA2R, tracer 1μM
  NanoBRET Fold Response: 1.04
SMO; SMO, tracer 0.1μM
  NanoBRET Fold Response: 1.03
SMO; SMO, tracer 1μM
  NanoBRET Fold Response: 0.91
CCR4; CCR4, tracer 0.1μM
  NanoBRET Fold Response: 1.09
CCR4; CCR4, tracer 1μM
  NanoBRET Fold Response: 0.96
HRH3; HRH3, tracer 0.1μM
  NanoBRET Fold Response: 2.54
HRH3; HRH3, tracer 1μM
  NanoBRET Fold Response: 2.06
CYSLTR2; tracer 0.1μM
  NanoBRET Fold Response: 1.05
CYSLTR2; tracer 1μM
  NanoBRET Fold Response: 0.98

## CN(C)CCC=C1c2ccccc2CCc2ccc(C(=O)NCCNC(=O)CCOCCOCCOCCOCCNC(=O)CCc3ccc4n3[B-](F)(F)[N+]3=C(c5ccc[nH]5)C=CC3=C4)cc21 [Amitriptyline-a-2-NB590]
CCR4; tracer at 0.1μM
  NanoBRET Fold Response: 0.92
CCR4; tracer at 1μM
  NanoBRET Fold Response: 1.01
HRH3; tracer at 0.1μM
  NanoBRET Fold Response: 1.01
HRH3; tracer at 1μM
  NanoBRET Fold Response: 0.94

## CN(C)CCC=C1c2ccccc2CCc2ccc(C(=O)NCCNC(=O)CCOCCOCCOCCOCCNC(=O)CCc3ccc4n3[B-](F)(F)[N+]3=C(c5ccc[nH]5)C=CC3=C4)cc21 [Amitriptyline-b-2-NB590]
PTGIR; tracer 0.1μM
  NanoBRET Fold Response: 0.99
PTGIR; tracer 1μM
  NanoBRET Fold Response: 0.98
TBXA2R; tracer at 0.1μM
  NanoBRET Fold Response: 0.90
TBXA2R; tracer at 1μM
  NanoBRET Fold Response: 1.01
SMO; tracer at 1μM
  NanoBRET Fold Response: 0.97
CCR4; [1]
  NanoBRET Fold Response: 1.02
CCR4; tracer at 1μM
  NanoBRET Fold Response: 0.95
HRH3; [1]
  NanoBRET Fold Response: 1.62
HRH3; tracer at 1μM, listed as amitriptyline-b-2-NB590
  NanoBRET Fold Response: 1.31
CYSLTR2; tracer 0.1μM
  NanoBRET Fold Response: 0.95
CYSLTR2; tracer 1μM
  NanoBRET Fold Response: 1.04
